Measurements taken from patent US20060269995A1, “Novel assays utilizing nicotinic acetylcholine receptor subunits” (priority 2005, published 2006).
Where two headings read alike, the source gives them in different places.

Key:
[1] = system: Drosophila melanogaster flies of a spinosyn-resistant strain; assay: Adult fly mortality screen, spinosyn-resistant flies; format: in vivo; conditions: for mortality: 100 ppm in 10% sucrose via cotton wick, 72 hours post-treatment, spinosyn-resistant flies; for resistance of spinosyn A resistant flies compared to wild-type flies (based on LD50): dose-response data, resistant vs wild-type flies
Protocol: (§1) Ten adult Drosophila melanogaster flies (5 males and 5 females) of the Oregon wild-type strain and ten adult flies of a spinosyn-resistant strain were used per treatment. Two sets (of 10 flies) were set-up per treatment. Stocks of spinosyn A and a 21-butenyl-spinosyn analog were formulated at 1000 ppm in 2:1 acetone:water and then diluted to the required concentration in 10% sucrose. Vials received 500 ul of treatment (or solvent for controls) via cotton wicks (approximately ¼ inch) and flies were added to each vial and capped with a cotton plug. Flies were monitored over 72 hours post-treatment while being maintained at room-temperature with a 12:12 light:dark cycle.
(§2) In addition, the spinosyn A resistant flies were >100-fold resistant (based on LD50) to the new class of spinosyns, represented by the 21-butenyl spinosyns.

[2] = system: Drosophila melanogaster flies of the Oregon wild-type strain; assay: Adult fly mortality screen, wild-type flies; format: in vivo; conditions: 100 ppm in 10% sucrose via cotton wick, 72 hours post-treatment
Protocol: as §1, §2

[3] = system: Dα6 and C. elegans ric3 expressed in D.Mel-2 cells; assay: [3H]DHSA radioligand displacement binding in D.Mel-2 cells; set-up: species or system Drosophila melanogaster
Protocol: D.Mel-2 cells were seeded into 75 cm^2 flasks at 1.9×10^7 cells/flask in Drosophila SFM containing antibiotic/antimicotic and incubated overnight at 27° C. The transfection mix was prepared in 12×75 mm polystyrene tubes by mixing 1630 μl sterile water, 40 μg pIB/V5-HisA/ric3, 40 μg pIB/V5-HisA/30D and 250 μl CellFectin. The reagents were mixed gently and incubated at room temp for 15 minutes. While the transfection mix was incubating, the cells were washed with 10 ml fresh Drosophila SFM without antibiotics; this media was then removed from the cells and replaced with 6 ml fresh Drosophila SFM without antibiotics. To the transfection mix was added 4 ml Drosophila SFM without antibiotics and this was then transferred to the flask. The reagents were gently mixed by pipetting up and down and then incubated overnight at 27° C.
D.Mel-2 cells were purchased from Invitrogen (Carlsbad, Calif.) and grown in disposable 125 ml shake flasks using 50 ml volume. Cells were subcultured to 3×10^5 cells/ml twice per week in Drosophila SFM containing 5 ml/L Antibiotic-Antimycotic (100×) (Gibco, Carlsbad, Calif.). D.Mel-2 cells were seeded into a 12-well plate at a cell density of 5×10^5 cells/well and incubated overnight at 27° C. In a 12×75 mm polystyrene tube 6 μg pIB/V5-HisA/ric3, 82 μl sterile H2O and 12 μl CellFectin (Invitrogen, Carlsbad, Calif.) were added. The sample was mixed gently and incubated at room temperature for 15 minutes. While the transfection mix was incubating, media from one well of cells was removed and replaced with 1 ml fresh media without antibiotics. After 15 minutes, the media was removed from cells. To this transfection mix, 0.5 ml media (no antibiotics) was added. This solution was then added to the cells. The mixture was incubated for 48 hrs at 27° C. After 48 hrs, the cells were scraped from the plate using a cell scraper and split into 4 wells of a 6-well plate each containing 2 ml Drosophila SFM with antibiotics. Cells were allowed to attach for 1 hr at 27° C.; the media was removed and replaced with 2 ml fresh media containing 25 μg/ml Blasticidin S (Invitrogen, Carlsbad, Calif.). Cells were incubated at 27° C. for 5 days. After 5 days, the cells were scraped loose from the wells and combined into one tube. Cells were spun down at 600 rpm in a tabletop centrifuge; the media was removed and the cells were resuspended into a 50 ml shake culture in fresh Drosophila SFM containing 25 μg/ml Blasticidin S. The cells were incubated at 27° C./140 rpm. Cells were subcultured twice weekly back to cell density of 3×10^5 cells/ml. After 4 weeks the selection was cut back to 10 μg/ml Blasticidin S. After 3 months of growth under selection, a 12 well plate was seeded at 5×10^5 cells/well and cells were incubated over night at 27° C. The following reagents were added to each of three 12×75 mm polystyrene tubes: 2 μg pMT/V5-HisA/30D, 0.15 μg pCoHygro (Invitrogen, Carlsbad, Calif.) (a […] ratio of expression plasmid:selection plasmid), 89 μl sterile H2O and 12 μl CellFectin. The samples were mixed gently and incubated at room temp for 15 minutes and then transfected as described above. After 24 hrs, the media containing transfection mix was removed and replaced with 1 ml fresh media containing antibiotics. The incubation was continued at 27° C. for another 24 hrs. Cells were scraped loose from the 12-well plate (3 wells) and split into 2, 6-well plates. Cells were allowed to attach for 6 hours at which point, the media was replaced with 2 ml/well fresh media containing 200, 150, 100 or 50 μg/ml hygromycin B. The incubation was continued at 27° C.; every 4-5 days, the media was replaced with media containing hygromycin every 4-5 days. After 2 weeks of selection in the plates, the cells from the 200 μg/ml selection, were scraped loose and then gently pelleted and resuspended in 25 ml fresh media containing 200 μg/ml hygromycin B and then placed into a 125 ml shake flask.

[4] = system: Dα6-nicotinic receptor; format: binding, Drosophila melanogaster
Protocol: Xenopus oocytes were injected as previously described for the electrophysiological assay and were used intact for binding assays.
Two main radioligands were used in binding assays: the conventional α7 radioligand, [^3H]methyllycaconitine (MLA) and [^3H]dihydrospinosyn A (DHSA). For both radioligands, the Binding Buffer used consisted of 10 mM sodium phosphate (7.2-7.4). […] For Xenopus oocyte binding assays, oocytes were pooled (2-5 oocytes) and transferred to 1 ml Binding Buffer. This was followed by gently aspirating the Binding Buffer and replacing with fresh Binding Buffer twice, to wash out any residual oocyte bathing media. The final volume of buffer added to each pool of oocytes was 50-100 μl. […] Subsequent dilutions were made in Binding Buffer. The final concentration of solvent was maintained at less than 0.1% in each well. 25 μl of unlabeled competing compounds were added to the cell suspensions or oocytes. Cells or cell extracts were pre-incubated with compounds for 15-30 minutes, at 10° C. (for [^3H]DHSA) and room-temperature for [^3H]MLA. The samples were gently shaken using a plate shaker. […] Filter mats were dried in an oven at 60° C. and the radioactivity from samples was counted for three minutes with a Wallac MicroBeta Counter (Wallac, Conn.) using Meltilex solid-scintillant (PerkinElmer, Finland). […]

[5] = system: 34E/ric-3; format: cell-based, Drosophila melanogaster; further: key: '−' indicates a negligible current was induced; '+' indicates a small amplitude current; '++' indicates a moderate amplitude current; '++++' indicates a large amplitude current
Protocol: (§3) Xenopus laevis (Xenopus 1, Ann Arbor, Mich.; Nasco, Fort Atkinson, Wis.) were anesthetized by bathing in a solution of 2 g/l tricaine methane sulfonate, and oocytes were surgically removed from the frog and placed in a culture solution that consisted of 96 mM NaCl, 2 mM KCl, 1.8 mM CaCl2, 1 mM MgCl2, 5 mM HEPES, 2.5 mM Na-pyruvate, 100 units/ml penicillin, and 0.1 mg/ml streptomycin, pH 7.6. Oocytes were dispersed in a nominally zero Ca^2+ protease treatment solution to defolliculate the oocytes. The protease treatment solution consisted of either 88 mM NaCl, 2.5 mM KCl, 1 mM MgCl2, 5 mM HEPES, 2.5 mM Na-pyruvate, 100 units/ml penicillin, and 0.1 mg/ml streptomycin, pH 7.6 plus 1.5 mg/ml collagenase IA (Sigma Chemical Co., St. Louis, Mo.). After isolation, the oocytes were thoroughly rinsed and returned to the above Ca^2+ containing culture solution and stored at 18° C.
(§4) Synthesis of cRNA was performed as follows: Plasmid DNA was linearized with one of the following restriction enzymes; Not I, Xho I or Nhe I. The linearized DNA was subsequently used as template for cRNA synthesis using T7 mMessage mMachine kit (Ambion, Austin, Tex.) following the manufacturer's instructions.
(§5) Micropipettes for injection of cRNA into Xenopus oocytes were pulled on a DMZ-Universal Puller (Zeitz-Instruments, München, Germany). The cRNA to be injected was drawn up into the micropipette with negative pressure. Approximately 10-50 ng of cRNA was injected into the oocytes by applying positive pressure using a Nanoject II oocyte injector (Drummond Scientific Co., Broomall, Pa.). Nucleic acid was introduced into the oocytes as follows: (1) nicotinic acetylcholine receptor alpha-6 subunit subunit (30D) (2) nicotinic alpha-7 receptor subunit (34E); (3) nicotinic acetylcholine receptor alpha-6 subunit and C. elegans ric-3 (30D and ric-3); (4) nicotinic alpha-7 receptor subunit and C. elegans ric-3 (34E and ric-3); (5) nicotinic acetylcholine receptor alpha-6 subunit and nicotinic alpha-7 receptor subunit (30D and 34E); and, (6) nicotinic acetylcholine receptor alpha-6 subunit, nicotinic alpha-7 receptor subunit and C. elegans ric-3 (30D, 34E and ric-3).
(§6) The control external solution for voltage clamp recordings consisted of 88 mM NaCl, 1 mM KCl, 0.41 mM CaCl2, 2.4 mM NaHCO3, 0.3 mM Ca(NO3)2, 0.82 mM MgSO4·7 H2O, and 15 mM HEPES, pH 7.6. The recording chamber was continuously perfused with a gravity-fed perfusion system. Nicotine (1 mM) was added to the external solution and then added to the perfusate for 30 seconds. Then, nicotine was washed from the external solution a minimum of 10 minutes. Thereafter, spinosyn A was dissolved in dimethylsulfoxide (DMSO) and then dissolved in the external solution at a final concentration of 10 μM and then added to the perfusate for 60 seconds. Then, the spinosyn A was washed from the external solution. The final concentration of DMSO never exceeded 0.1% (v/v).

[6] = system: 30D/ric-3; format: cell-based, Drosophila melanogaster; conditions: −60 mV, peak current; on Spinosyn A Response: key: '−' indicates a negligible current was induced; '+' indicates a small amplitude current; '++' indicates a moderate amplitude current; '++++' indicates a large amplitude current
Protocol: as §3, §4, §5, §6

[7] = system: 30D (nicotinic acetylcholine receptor alpha-6 subunit); format: cell-based, Drosophila melanogaster; further: key: '−' indicates a negligible current was induced; '+' indicates a small amplitude current; '++' indicates a moderate amplitude current; '++++' indicates a large amplitude current
Protocol: as §3, §4, §5, §6

[8] = system: 34E (nicotinic acetylcholine receptor alpha-5 subunit); format: cell-based, Drosophila melanogaster; further: key: '−' indicates a negligible current was induced; '+' indicates a small amplitude current; '++' indicates a moderate amplitude current; '++++' indicates a large amplitude current
Protocol: as §3, §4, §5, §6

[9] = system: 34E/30D; format: cell-based, Drosophila melanogaster; set-up: key to the marks not given beside the values; conditions: −60 mV, peak current
Protocol: as §3, §4, §5
as §6, with “Then, the spinosyn A was washed from the external solution. The final concentration of DMSO never exceeded 0.1% (v/v).” left out

[10] = system: 34E/30D/ric-3; format: cell-based, Drosophila melanogaster; set-up: key to the marks not given beside the values; conditions: −60 mV, peak current
Protocol: as §3, §4, §5
as §6, with “Then, the spinosyn A was washed from the external solution. The final concentration of DMSO never exceeded 0.1% (v/v).” left out

[11] = D.Mel-2 cells expressing Dα6 and C. elegans ric3
[12] = spinosyn A 10 μM for 60 seconds

## 21-butenyl spinosyn
[1]
  mortality: no significant mortality
  resistance of spinosyn A resistant flies compared to wild-type flies (based on LD50): > 100 fold
[2]
  mortality: all wild-type flies exhibited mortality

## CCN1C[C@]2(COC(=O)c3ccccc3N3C(=O)C[C@H](C)C3=O)CC[C@H](OC)[C@@]34[C@@H]5C[C@H]6[C@H](OC)[C@@H]5[C@](O)(C[C@@H]6OC)[C@@](O)([C@@H](OC)[C@H]23)[C@@H]14 [MLA, methyllycaconitine]
[3]; [11]
  displacement of [3H]DHSA binding: can be demonstrated at higher concentrations
[3]; [3H]DHSA binding assay, D.Mel-2 cells
  overall affinity for this receptor complex: relatively poor

## CN1CCCC1c1cccnc1 (stereo not shown) [Nicotine, nicotine]
[3]; [11]
  displacement of [3H]DHSA binding: displacement
[4]
  % Displacement of Total Binding: 72%
[5]
  Nicotine Response: +
[6]; nicotine 1 mM for 30 seconds
  Nicotine Response: +
[7]
  Nicotine Response: −
[8]
  Nicotine Response: +
[9]; nicotine 1 mM for 30 seconds
  Nicotine Response: ++
[10]; nicotine 1 mM for 30 seconds
  Nicotine Response: ++++

## CC[C@H]1CCC[C@H](O[C@H]2CC[C@H](N(C)C)[C@@H](C)O2)[C@@H](C)C(=O)C2=C[C@@H]3[C@@H](C=C[C@@H]4C[C@@H](O[C@@H]5O[C@@H](C)[C@H](OC)[C@@H](OC)[C@H]5OC)C[C@@H]34)[C@@H]2CC(=O)O1 [Spinosyn A, spinosyn A]
[3]; [11]
  displacement of [3H]DHSA binding: significant displacement
[4]; 10 μM, [3H]MLA, intact Xenopus oocytes 3 days post-injection with Dmα6
  % Displacement of Total Binding: 72%
[1]
  mortality: no significant mortality
  resistance of spinosyn A resistant flies compared to wild-type flies (based on LD50): at least 100 fold
[5]; spinosyn A 10 μM for 60 seconds, −60 mV, peak current, 34E/ric-3
  Spinosyn A Response: −
[6]; [12]
  Spinosyn A Response: +
[7]; spinosyn A 10 μM for 60 seconds, oocytes clamped to −60 mV, peak current, 30D
  Spinosyn A Response: −
[8]; spinosyn A 10 μM for 60 seconds, −60 mV, peak current, 34E
  Spinosyn A Response: −
[9]; [12]
  Spinosyn A Response: ++
[10]; [12]
  Spinosyn A Response: ++++
[2]
  mortality: all wild-type flies exhibited mortality

## CN1[C@@H]2CC[C@H]1C[C@@H](OC(=O)C(CO)c1ccccc1)C2 (stereo partly shown) [atropine]
[3]
  displacement of [3H]DHSA binding: not

## C[N+](C)(C)CCOC(N)=O.[Cl-] [carbamylcholine]
[3]; [11]
  displacement of [3H]DHSA binding: did not significantly displace

## CC[C@H]1CCC[C@H](O[C@H]2CC[C@H](N(C)C)[C@@H](C)O2)[C@@H](C)C(=O)C2=C[C@H]3[C@@H]4C[C@H](O[C@@H]5O[C@@H](C)[C@H](OC)[C@@H](OC)[C@H]5OC)C[C@H]4CC[C@H]3[C@@H]2CC(=O)O1 [dihydrospinosyn A]
[3]; [11]
  displacement of [3H]DHSA binding: significant displacement

## Clc1ccc(C2CC3CCC2N3)cn1 (stereo not shown) [epibatidine]
[3]; [11]
  displacement of [3H]DHSA binding: did not significantly displace

## NS(=O)(=O)c1cc(C(=O)O)c(NCc2ccco2)cc1Cl [furosemide]
[3]; [11]
  displacement of [3H]DHSA binding: No significant displacement

## O=[N+]([O-])NC1=NCCN1Cc1ccc(Cl)nc1 [imidacloprid]
[3]; [11]
  displacement of [3H]DHSA binding: did not significantly displace

## CN1[C@@H](CC(=O)c2ccccc2)CCC[C@H]1C[C@H](O)c1ccccc1 [lobeline]
[3]; [11]
  displacement of [3H]DHSA binding: did not significantly displace

## C[C@@H]1O[C@H](C[N+](C)(C)C)C[C@H]1O [muscarine]
[3]; [11]
  displacement of [3H]DHSA binding: not

## CC[C@H]1CCC[C@H](O)[C@@H](C)C(=O)C2=C[C@@H]3[C@@H](C=C[C@@H]4C[C@@H](O[C@@H]5O[C@@H](C)[C@H](OC)[C@@H](OC)[C@H]5OC)C[C@@H]34)[C@@H]2CC(=O)O1 [pseudoagylcone of spinosyn A]
[3]; [11]
  displacement of [3H]DHSA binding: Nor was there significant displacement

## C[C@H](O)[C@H](O)[C@@H](O)[C@@H](O)C=O [rhamnose]
[3]; [11]
  displacement of [3H]DHSA binding: No significant displacement

## CN1COCN(Cc2cnc(Cl)s2)/C1=N\[N+](=O)[O-] [thiamethoxam]
[3]; [11]
  displacement of [3H]DHSA binding: did not significantly displace

## alpha-bungarotoxin
[3]
  displacement of [3H]DHSA binding: can be demonstrated at higher concentrations
  overall affinity for this receptor complex: relatively poor
